# Measured values reported in paper PMC6814738, “Bacterial MgrB peptide activates chemoreceptor Fpr3 in mouse accessory olfactory system and drives avoidance behaviour” (Nature Communications, 2019).
# Where “and” joins values, the source holds several entries; their conditions need not be identical. Equal entries are not always repeated. Where two headings read alike, the source gives them in different places.
# What was measured:
# [1] = tested on: vomeronasal sensory neurons (VSNs); assay: VNO whole-mount en face confocal Ca2+ imaging of VSN dendritic knobs (Fig. 4, 5); type: cell-based, mouse; design: key to Ca2+ response of f-MKKFRW-responsive VSN knobs / Fpeak: normalised to knob resting fluorescence F0 before stimulation
# Description: Mice (6–20 week old, either sex) were euthanized by CO2 inhalation according to institutional guidelines. After decapitation, the skin was removed from the skull, the mandible was cut off and the cranium was opened by a sagittal cut, 1–2-mm right-lateral in parallel to the midline. The palate and the right incisor were removed and the hemisected skull was mounted in low-melting agarose (4%). The bony capsule of the VNO was opened with fine forceps and the nonsensory epithelium was stripped off. Tissue and cell debris were gently washed off, and the en face preparation was superfused with physiological S1 solution (120 mM NaCl, 25 mM NaHCO3, 5 mM KCl, 1 mM MgSO4, 1 mM CaCl2, 10 mM glucose, 5 mM BES, pH 7.3) saturated with carbogen (95% O2, 5% CO2).
# Loading of the VNE with Rhod-2/AM (5–15 µM, 1 h) was performed in S1 solution under carbogen atmosphere at RT. Images were taken with an upright confocal laser scanning microscope (Leica TCS SP5 II, 20x water immersion objective HCX APO L20x/1.0w) equipped with Ar and He/Ne lasers. GFP was excited at 488 nm, Venus at 514 nm and Rhod-2 at 543 nm. Emission was measured at 490–520 nm (GFP), 520–600 nm (Venus) and 560–680 nm (Rhod-2). To minimise interference between Venus and Rhod-2 fluorescence, images were taken sequentially (sample interval per image, 3–4 s). Peptide stimuli were applied to the VNE surface with a local perfusion system which, when positioned close to the anterior end of the VNO, produced a continuous solution stream from rostral to caudal along the VNO axis. Data analysis was performed with the open source software ImageJ (NIH). Ca^2+ responses of individual dendritic knobs were normalised to the knob resting fluorescence level obtained before stimulation (ratio Fx/F0, Fx = actual fluorescence; F0 = mean fluorescence of 3–5 images before ligand application). Mapping was performed by superimposing Ca^2+ peak images onto images showing intrinsic fluorescence for specific markers.
# Predator urine mix was composed of urine from mountain lion, coyote, bobcat, fox and marten (at equal volume ratios), purchased from Predatorpee (USA) and Kieferle (Germany). The fMet peptides were as described above. Stimuli were applied in S2 solution (140 mM NaCl, 5 mM KCl, 10 mM HEPES, 1 mM CaCl2, 1 mM MgCl2, 10 mM glucose, pH 7.3 with NaOH).
# male mice = assay: Behavioural avoidance test, FEU vs. FEU supplemented with peptide (Fig. 8, Supplementary Fig. 4); type: in vivo, mouse; conditions: for avoidance, in words: 100 µM, B6 mice (f-MKKFRW also ΔFpr3-lacZ+/+, cGαo+/−, Trpc2+/−); for avoidance index: 100 µM in FEU, mean ± s.e.m.; for Preference (%): group mean value, FEU vs FEU supplemented with 100 µM peptide
# Experimental: These assays were adapted from behavioural procedures described previously[14],[60]. We tested avoidance by giving adult male mice (8–14 week old) of various genotypes a choice to freely investigate two types of chemical stimuli: FEU vs. FEU supplemented with a peptide. Mice were sexually naïve and not exposed to the test stimuli prior to the testing day. Mice were habituated for three days (40 min each day) to clean filter papers (2.5 cm diameter), each deposited in a sterile plastic culture dish and placed in opposite corners of the test cage (30 × 12 cm). After the third habituation period, the test subject was transferred into a new cage containing fresh filter papers/dishes with either of the two test stimuli. One filter paper was impregnated with 45 µl of fresh urine pooled from two sexually naïve female B6 mice (8–16 weeks old) in oestrus (FEU, female oestrous urine) and 5 µl physiological solution containing (in mM): NaCl, 130; KCl, 5; Na-Hepes, 10; CaCl2, 2; glucose, 10; pH = 7.4. For testing the effects of specific peptides, the second filter paper was impregnated with FEU supplemented with a given peptide (100 or 50 µM final concentration, dissolved in physiological solution). Direct physical contact was allowed. Behaviour was recorded for 10 min from the top of the cage. Mice were exposed only once to a given peptide solution, and were exposed to only one peptide stimulus per day. Stimuli were presented in randomised order. […] This investigative behaviour was quantified as the time spent in close contact with each filter paper, scored manually by an observer blind to the experimental conditions using Behavioural Observation Research Interactive Software (BORIS)[85]. Contact time was measured as the time during which the nose crossed the border of a petri dish containing impregnated filter paper. An avoidance index was calculated as (TP — aTU)/(aTP + aTU), with TP as the time an individual mouse investigated a FEU-peptide mixture, aTP as the average time of all tested mice investigating this stimulus and aTU as the average time of all mice investigating FEU without added peptide. Negative values represent avoidance and positive values represent attraction. For analysing investigation of sick conspecifics, B6 mice were injected either with LPS or PBS as described above. In total, 4 h post injection, these mice were anaesthetised with 165 mg/kg ketamine (Pharmacia GmbH, Berlin, Germany) and 11 mg/kg xylazine (Bayer Health Care, Leverkusen, Germany) and then used in behavioural tests.
# mouse Fpr3 = conditions: cited from earlier work
# Experimental: We estimate the fraction of knobs responding to f-MKKFRW as ~0.15%, which is similar to the fraction of cells in the VNE that express Fpr3[30]. Strikingly, the sensitivity and sequence-selectivity profile of these responses was nearly identical to the results that we obtained for heterologously expressed Fpr3. The detection threshold of native VSNs for f-MKKFRW was ≤0.1 µM (Fig. 4f), virtually the same as for Fpr3-expres ... || Given the importance of the olfactory system in a variety of behavioural avoidance and defence mechanisms[14],[62],[63], we reasoned that in vivo detection of MgrB peptide may evoke an avoidance reaction in mice. We devised a behavioural assay[14],[60] in order to determine whether direct nasal contact with MgrB peptide evokes unconditioned, innate avoidance (Fig. 8a and Methods). […] (Fig ... || We used custom-made peptides with a length of 6–21 amino acids to screen for agonists. Sequences of fMet peptides were designed according to motifs present at the N-termini of 15,125 specific bacterial proteins as annotated in UniProt. Peptides were chemically synthesised, purified, and verified by mass spectroscopy (MALDI-TOF) by commercial suppliers. Purity of all peptides was >95%. Source, sequence and purity of each peptide are listed in Supplementary Data 1. Lyophilised peptides were routinely dissolved in the Ca^2+ imaging assay buffer C1 (130 mM NaCl, 10 mM HEPES, 5 mM KCl, 2 mM CaCl2, ...
# [2] = B6, n = 10-11, negative = avoidance
substance,measurement,setting,value
MKKFRW [non-formylated MKKFRW peptide],Fpeak,"[1]; Fig. 4h, mean of individual knobs, n = 103 f-MKKFRW, 21 f-MKKFRWVVL, 68 MKKFRW, 26 f-MGFFIS, 63 PUM",0.00
same,"Ca2+ responses in VSNs, in words","[1]; VNE of adult B6 mice, f-MKKFRW 1 µM",failed to evoke Ca^2+ responses in VSNs
same,Ca2+ response of f-MKKFRW-responsive VSN knobs,"[1]; adult B6 mice, mean ± s.d., N = 103 (f-MKKFRW), 21 (f-MKKFRWVVL), 68 (MKKFRW), 26 (f-MGFFIS), 63 (PUM), Fig. 4h",0.00 ± 0.00
same,"avoidance, in words",male mice,failed to elicit avoidance
same,avoidance index,male mice; [2],0.07 ± 0.05
same,Preference Index,"male mice; Fig. 8c, individual values, B6 mice",-0.0604 and 0.2531 and -0.1298 and -0.1953 and 0.1497 and 0.2996 and 0.2407 and -0.00533 and -0.09796 and 0.2025 and 0.1402
same,Preference Index,"male mice; Fig. 8c, mean, B6 mice, n = 11 f-MKKFRW, 11 MKKFRW, 10 f-MGFFIS, 10 f-MEQQNK, FEU control -0.002",0.07
same,Preference Index,"male mice; Fig. 8e, individual values, cGao +/-",-0.2952 and -0.1477 and 0.0923 and 0.1621 and -0.0653 and -0.08718 and -0.2984 and 0.512 and -0.2293 and -0.2843 and -0.4122 and -0.3523
same,Preference Index,"male mice; Fig. 8e, individual values, cGao -/-",-0.00407 and 0.301 and 0.1658 and 0.1525 and 0.9449 and 0.3984 and 0.4927 and 0.2412 and 0.4087 and 0.6592 and -0.3896 and -0.3365 and -0.3471
same,Preference Index,"male mice; Fig. 8e, mean, cGao +/-, n = 13 f-MKKFRW, 12 MKKFRW, FEU control -0.0358",-0.12
same,Preference Index,"male mice; Fig. 8e, mean, cGao -/-, n = 13, FEU control 0.15",0.21
same,Preference Index,"male mice; Fig. 8f, individual values, Trpc2 +/-",0.2866 and 0.03638 and -0.02867 and 0.9217 and 0.4878 and -0.4504 and -0.342 and -0.3772 and -0.3362
same,Preference Index,"male mice; Fig. 8f, individual values, Trpc2 -/-",1.085 and 1.60E-05 and 0.07163 and 0.2257 and 0.5213 and -0.3383 and -0.4081 and -0.0323
same,Preference Index,"male mice; Fig. 8f, mean, Trpc2 +/-, n = 12 f-MKKFRW, 9 MKKFRW, FEU control -0.0531",0.022
same,Preference Index,"male mice; Fig. 8f, mean, Trpc2 -/-, n = 11 f-MKKFRW, 8 MKKFRW, FEU control -0.10",0.14
same,Preference (%),"male mice; Fig. 8g, ∆Fpr3-lacZ +/+ males, FEU/FEU control -5.85844",7.718%
same,Preference (%),"male mice; Fig. 8g, ∆Fpr3-lacZ -/- males, FEU/FEU control 2.58474",9.878%
same,Preference (%),"male mice; Fig. 8h, Trpc2 +/- males, FEU/FEU control 0.100694",6.911%
same,Preference (%),"male mice; Fig. 8h, Trpc2 -/- males, FEU/FEU control -3.21189",-1.784%
same,Preference Index,"male mice; Fig. 8d, individual values, ∆Fpr3-lacZ +/+",-0.2521 and -0.1287 and 0.07074 and 0.3269 and 0.2942 and 0.3844
same,Preference Index,"male mice; Fig. 8d, individual values, ∆Fpr3-lacZ -/-",-0.1393 and 0.3319 and 0.8558 and 1.088 and -0.03627 and 0.0259 and -0.07697 and -0.00886 and -0.09833 and -0.1976 and 0.3575 and 0.2784
same,Preference Index,"male mice; Fig. 8d, mean, ∆Fpr3-lacZ +/+, n = 9 f-MKKFRW, 6 MKKFRW, FEU control -0.06",0.12
same,Preference Index,"male mice; Fig. 8d, mean, ∆Fpr3-lacZ -/-, n = 12, FEU control 0.19",0.20
same,avoidance index,male mice; Trpc2 +/−,0.02 ± 0.16
same,avoidance index,male mice; Trpc2 −/−,0.14 ± 0.17
same,avoidance index,male mice; cGαo +/−,−0.12 ± 0.08
same,avoidance index,"male mice; cGαo −/−, n = 13",0.21 ± 0.11
same,avoidance index,male mice; ∆Fpr3-lacZ +/+,0.12 ± 0.11
same,avoidance index,"male mice; ∆Fpr3-lacZ −/−, n = 12",0.20 ± 0.12
"f-MLFYFS [signal peptide fragment identified as agonist for mouse Fpr3, reference compound]","agonism at mouse Fpr3, in words",mouse Fpr3; signal peptide fragments,agonists for mouse Fpr3
f-MLFYLA,"agonism at mouse Fpr3, in words",mouse Fpr3; signal peptide fragments,agonists for mouse Fpr3
f-MFQQNK [reference compound],"avoidance, in words",male mice,failed to elicit avoidance
same,avoidance index,male mice; [2],0.04 ± 0.09
same,"activation of heterologously expressed Fpr3, in words",mouse Fpr3,failed to activate heterologously expressed Fpr3
W-peptide [reference compound],"agonism at mouse Fpr3, in words",mouse Fpr3,agonists for mouse Fpr3
